Laboratory results as given in patent publication US20210161840A1, “COMPOSITIONS AND METHODS FOR TREATMENT OF IRON OVERLOAD” (priority 2018, published 2021).

Tests used:
[1] = system: doxorubicin-induced cardiomyopathy; assay: Doxorubicin-induced cardiomyopathy in mice; format: in vivo, C57BL/6 mice
Description: The purpose of this study was to assess the protective effect of dexrazoxan or the zinc-dexrazoxan complex, administered with or without Ga-DFO, against doxorubicin-induced cardiomyopathy.
C57BL/6 mice are injected once with doxorubicin, 20 mg/kg, i.p., and then divided into the following 5 groups: Group 1: untreated; Group 2: treated with dexrazoxan single dose of 400 mg/kg i.v.; Group 3: treated with the zinc complex of dexrazoxan single dose of 100 mg/kg i.v.; Group 4: treated with the Ga-DFO complex 6 mg/kg, and Group 5: treated with the zinc complex of dexrazoxan single dose of 50 mg/kg i.v. together with Ga-DFO 4 mg/kg. The animals are monitored for 21 days, measuring their survival (Kaplan-Meier curves). On Day 21 the animals are sacrificed, and their hearts are assessed histologically for cardiac remodeling and hypertrophy (collagen % or area).

[2] = Keberle, 1964; cited from earlier work
[3] = Keberle, 1964; cited from earlier work; remark: listed apart in the source
[4] = Keberle, 1964; cited from earlier work; remark: listed apart in the source
[5] = Keberle, 1964; cited from earlier work; remark: listed apart in the source

Row | Structure (SMILES) | survival ([1]; Day 15 after doxorubicin 20 mg/kg i.p., about 90% of untreated mice die) | collagen % of the area (cardiac histology) ([1]; Day 21 after doxorubicin 20 mg/kg i.p., untreated about 10-12%) | relative stability constant of DFO complex with Fe(III) [2] | relative stability constant of DFO complex with Cu(II) [3] | relative stability constant of DFO complex with Zn(II) [4] | relative stability constant of DFO complex with Ga(III) [5]
1 | C[C@@H](CN1CC(=O)NC(=O)C1)N1CC(=O)NC(=O)C1 [dexrazoxan] | about 50% | about 9% | – | – | – | –
2 | CC(=O)N(O)CCCCCNC(=O)CCC(=O)N(O)CCCCCNC(=O)CCC(=O)N(O)CCCCCN [DFO, N′-[5-(acetyl-hydroxy-amino)pentyl]-N-[5-[3-(5-aminopentyl-hydroxy-carbamoyl)propanoylamino]pentyl]-N-hydroxy-butane diamide] | – | – | 10^31 | 10^14 | 10^11 | 10^28
